{"source": "patent US20170029494A1", "about": "“Antigen Binding Constructs” (Glaxo Group Limited, priority 2011, published 2017)", "key": {"[1]": {"system": "human VEGF165 induced blood-retinal breakdown", "assay": "VEGF induced blood-retinal breakdown: rabbit retinal leakage model", "format": "in vivo", "set-up": "Geometric mean (right eye values adjusted for left eye values): unit not given here", "conditions": "for % reduction vs vehicle / Ratio vs Vehicle: Example 9, Table 4B; for Rt ratio of vitreoretinal fluorescein contents between right-induced and left eyes: Example 9; for Geometric mean (right eye values adjusted for left eye values): Example 42, Table 15B (i)"}, "[2]": {"system": "VEGF165-induced proliferation of human umbilical vein endothelial cells (HUVEC)", "assay": "Human Umbilical Cord Endothelial Cell (HUVEC) proliferation assay", "format": "cell-based", "conditions": "for Predicted Means for Max % Inhibition, Estimate: weighted mixed model analysis", "experimental": "The assay measures the extent of endothelial cell proliferation induced by a defined concentration of VEGF165 and the ability of VEGF antagonists to block this effect. HUVECs were seeded at 5000 cells per well in 96-well gelatine-coated plates, leaving outer wells free of cells, and incubated for several hours to permit adherence. Test molecules were assayed at equimolar concentrations (max 3.33×10^−08M) with a 2-fold serial dilution, each in triplicate. The VEGF165 was prepared in basal medium to achieve 75 ng/ml final concentration. Medium was removed manually from the cell monolayers and 50 μl basal media was added to prevent the cells from drying out. 25 μl VEGF165-containing medium and 25 μl basal medium or test antibody-containing medium was added as appropriate. Cells were incubated for 72 hrs, after which time the total number of cells was determined using Cell Titre Glo.\nThe data was analysed using GraphPad Prism using a Sigmodial curve fit, variable slope cf a non-linear regression (variable slope). Individual curve fits were fitted for each molecule and at each day. Due to some poor fitting, it was decided to introduce constraints for the curve where a plateau was not observed at the lower concentration. This constraint would be equal to the mean of the points at the lowest concentration. Data was manually selected as to whether the minimum was constrained or not, and the curve fit and parameters were automatically updated based upon this criteria selection. Estimates of the curve maxima and the standard error were analysed using a weighted mixed model analysis of variance, using 1/(standard error)^2, [SE]^2, as a weighting. The analysis adjusted for variability between plates and days using random effects terms. […] The same analysis was then performed on the log 10 scale for the IC50, and the results back transformed.\nThe data was analysed using GraphPad Prism using a Sigmodial curve fit, variable slope cf a non-linear regression (variable slope). Individual curve fits were fitted for each molecule and at each day. Due to some poor fitting, it was decided to introduce constraints for the curve where a plateau was not observed at the lower concentration. One plate was excluded from the analysis due to poor curve fitting despite constraints. This constraint would be equal to the mean of the points at the lowest concentration. Data was manually selected as to whether the minimum was constrained or not, and the curve fit and parameters were automatically updated based upon this criteria selection. Estimates of the curve maxima and the standard error were analysed using a weighted mixed model analysis of variance, using 1/(standard error)^2, [SE]^2, as a weighting. The analysis adjusted for variability between plates and days using random effects terms. […]"}, "VEGFR1 (Flt1)": {"molecular_target": "VEGFR1 (Flt1) (Homo sapiens, UniProt P17948)", "sequence (P17948 27-1338, species assumed)": "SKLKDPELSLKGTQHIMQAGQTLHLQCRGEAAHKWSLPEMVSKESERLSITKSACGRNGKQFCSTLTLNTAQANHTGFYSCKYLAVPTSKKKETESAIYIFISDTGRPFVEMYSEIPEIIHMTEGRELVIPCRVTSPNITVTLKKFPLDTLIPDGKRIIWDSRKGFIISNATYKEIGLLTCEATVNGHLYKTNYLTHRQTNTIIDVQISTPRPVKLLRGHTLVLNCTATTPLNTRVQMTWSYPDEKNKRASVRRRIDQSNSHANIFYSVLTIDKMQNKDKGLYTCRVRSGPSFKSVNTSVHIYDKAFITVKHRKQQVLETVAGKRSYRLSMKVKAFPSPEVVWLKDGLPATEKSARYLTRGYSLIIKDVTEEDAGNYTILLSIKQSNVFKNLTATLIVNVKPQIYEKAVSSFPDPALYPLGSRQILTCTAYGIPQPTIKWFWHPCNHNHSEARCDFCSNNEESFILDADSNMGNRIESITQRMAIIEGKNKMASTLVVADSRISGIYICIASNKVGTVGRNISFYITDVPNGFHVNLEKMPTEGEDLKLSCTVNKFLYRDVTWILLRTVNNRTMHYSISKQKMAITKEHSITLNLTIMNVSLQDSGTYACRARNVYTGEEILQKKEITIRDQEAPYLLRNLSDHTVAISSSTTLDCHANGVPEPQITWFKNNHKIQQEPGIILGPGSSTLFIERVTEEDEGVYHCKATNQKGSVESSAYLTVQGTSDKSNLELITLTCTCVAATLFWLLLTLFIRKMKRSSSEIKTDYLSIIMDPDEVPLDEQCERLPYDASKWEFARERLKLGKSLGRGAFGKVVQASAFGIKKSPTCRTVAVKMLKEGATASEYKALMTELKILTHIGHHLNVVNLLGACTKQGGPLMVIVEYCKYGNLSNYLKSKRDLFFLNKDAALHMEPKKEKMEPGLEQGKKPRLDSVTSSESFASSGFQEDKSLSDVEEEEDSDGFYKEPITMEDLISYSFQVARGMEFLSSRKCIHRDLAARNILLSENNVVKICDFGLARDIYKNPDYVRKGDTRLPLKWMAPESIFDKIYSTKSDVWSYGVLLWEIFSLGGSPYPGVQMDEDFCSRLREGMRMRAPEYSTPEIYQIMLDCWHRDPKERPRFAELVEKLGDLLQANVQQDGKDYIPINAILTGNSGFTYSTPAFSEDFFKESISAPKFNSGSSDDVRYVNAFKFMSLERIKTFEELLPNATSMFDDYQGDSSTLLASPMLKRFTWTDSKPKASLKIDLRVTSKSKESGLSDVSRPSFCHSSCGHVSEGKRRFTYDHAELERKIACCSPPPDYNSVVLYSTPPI", "conditions": "background statement; cited from earlier work"}, "[3]": {"molecular_target": "T1, mVEGF R2 Fc (R&D 443-KD/CF) (mouse, UniProt P35918 20-762)", "T1 construct": "Bought control protein; not shown: Fc part of the bought fusion", "T1 sequence (P35918 20-762 limits assumed)": "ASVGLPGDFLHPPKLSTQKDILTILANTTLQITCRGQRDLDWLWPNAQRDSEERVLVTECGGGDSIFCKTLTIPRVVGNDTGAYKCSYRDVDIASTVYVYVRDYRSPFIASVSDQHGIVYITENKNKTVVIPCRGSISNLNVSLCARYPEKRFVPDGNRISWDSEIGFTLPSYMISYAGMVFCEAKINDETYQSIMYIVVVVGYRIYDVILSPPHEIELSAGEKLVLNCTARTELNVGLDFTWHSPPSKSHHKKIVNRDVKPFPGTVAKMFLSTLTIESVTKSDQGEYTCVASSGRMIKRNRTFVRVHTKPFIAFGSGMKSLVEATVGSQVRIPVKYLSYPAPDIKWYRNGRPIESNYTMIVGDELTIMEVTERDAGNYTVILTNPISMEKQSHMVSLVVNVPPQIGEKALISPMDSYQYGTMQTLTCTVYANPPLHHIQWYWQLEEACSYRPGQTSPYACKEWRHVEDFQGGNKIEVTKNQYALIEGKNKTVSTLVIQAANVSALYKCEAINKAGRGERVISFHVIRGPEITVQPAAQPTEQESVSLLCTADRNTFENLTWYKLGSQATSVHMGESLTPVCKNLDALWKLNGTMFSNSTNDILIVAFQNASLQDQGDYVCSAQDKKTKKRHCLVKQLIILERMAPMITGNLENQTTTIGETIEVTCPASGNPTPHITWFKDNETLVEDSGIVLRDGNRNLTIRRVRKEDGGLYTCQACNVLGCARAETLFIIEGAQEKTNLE", "assay": "MSD on coated mouse VEGF164 (1ug/mL mVEGF capture), detection with sulfo-TAG anti-human IgG Fc"}, "[4]": {"conditions": "Example 42, Table 15B (ii), 2000 μg/eye"}, "[5]": {"conditions": "dose H (high), VEGF induced retinal leakage"}}, "note": "Several values for one entry are separate records, joined by “and”; a condition that tells them apart may be missing. Equal values may be shown once.", "data": [{"molecule": "C[C@]12C=CC(=O)C=C1CC[C@H]1[C@@H]3C[C@@H](O)[C@](O)(C(=O)CO)[C@@]3(C)C[C@H](O)[C@@]12F", "note": "[Kenacort, Triamcinalone]", "values": [{"measurement": "% reduction vs vehicle", "setting": "[1]; 2000 μg/eye", "result": 85, "unit": "%"}, {"measurement": "Ratio vs Vehicle", "setting": "[1]; 2000 μg/eye", "result": 0.1485}, {"measurement": "Rt ratio of vitreoretinal fluorescein contents between right-induced and left eyes", "setting": "[1]; Kenacort 2000 μg/eye IVT Day -7", "result": "1.15±0.61"}, {"measurement": "Geometric mean (right eye values adjusted for left eye values)", "setting": "[1]; 2000 μg/eye", "result": 10205.21}, {"measurement": "% reduction", "setting": "[1]; [4]", "result": "80% and 79.9922%"}, {"measurement": "ratio (to vehicle)", "setting": "[1]; [4]", "result": 0.2001}]}, {"molecule": "Bevacizumab [Avastin]", "values": [{"measurement": "% reduction vs vehicle", "setting": "[1]; [5]", "result": 75, "unit": "%"}, {"measurement": "% reduction vs vehicle", "setting": "[1]; dose H (high), VEGF induced retinal leakage, listed as Bevacizumab", "result": 75, "unit": "%"}, {"measurement": "Geometric mean (right eye values adjusted for left eye values)", "setting": "[1]; dose H, IVT Day -7", "result": 12332.94}, {"measurement": "Geometric mean (right eye values adjusted for left eye values)", "setting": "[1]; dose L", "result": 12037.98}, {"measurement": "Geometric mean (right eye values adjusted for left eye values)", "setting": "[1]; dose L/3", "result": 14592.62}, {"measurement": "% reduction", "setting": "[1]; Example 42, Table 15B (ii), dose H", "result": 75.8207, "unit": "%"}, {"measurement": "% reduction", "setting": "[1]; Example 42, Table 15B (ii), dose L", "result": 76.3990, "unit": "%"}, {"measurement": "% reduction", "setting": "[1]; Example 42, Table 15B (ii), dose L/3", "result": 71.3905, "unit": "%"}, {"measurement": "reduction of VEGF induced retinal leakage", "setting": "[1]; Example 42, the three different doses (H, L, L/3)", "result": "71.4-76.4%"}, {"measurement": "inhibit HUVEC proliferation", "setting": "[2]; Example 8, VEGF165 75 ng/ml, 72 hrs, maximum extent of inhibition", "result": "~100", "unit": "%"}, {"measurement": "inhibition of VEGF driven HUVEC proliferation (extent)", "setting": "[2]; Example 18, data not shown", "result": "~100", "unit": "%"}, {"measurement": "Predicted Means for Max % Inhibition, Estimate", "setting": "[2]; Table 14A", "result": 73.5423, "unit": "%"}, {"measurement": "Predicted Means for Max % Inhibition, Estimate", "setting": "[2]; Table 18A", "result": 71.0316, "unit": "%"}]}, {"molecule": "Ranibizumab [Lucentis]", "values": [{"measurement": "Ratio vs Vehicle", "setting": "[1]; dose H (high)", "result": 0.1826}, {"measurement": "% reduction vs vehicle", "setting": "[1]; [5]", "result": 82, "unit": "%"}, {"measurement": "% reduction vs vehicle", "setting": "[1]; dose H (high), VEGF induced retinal leakage, listed as Ranibizumab", "result": 82, "unit": "%"}, {"measurement": "Ratio vs Vehicle", "setting": "[1]; low dose (L)", "result": 0.2188}, {"measurement": "% reduction vs vehicle", "setting": "[1]; low dose (L), VEGF induced retinal leakage", "result": 78, "unit": "%"}, {"measurement": "% reduction vs vehicle", "setting": "[1]; low dose (L), VEGF induced retinal leakage, listed as Ranibizumab", "result": 78, "unit": "%"}, {"measurement": "Rt ratio of vitreoretinal fluorescein contents between right-induced and left eyes", "setting": "[1]; IVT Day -7, 500 ng rhVEGF165 Day 0, read Day 2, dose H (high)", "result": "1.05±0.52"}, {"measurement": "Rt ratio of vitreoretinal fluorescein contents between right-induced and left eyes", "setting": "[1]; IVT Day -7, 500 ng rhVEGF165 Day 0, read Day 2, low dose (L)", "result": "1.81±1.76"}]}, {"molecule": "VEGF", "values": [{"measurement": "Kd", "setting": "VEGFR1 (Flt1)", "result": "~0.03", "unit": "nM"}]}, {"molecule": "mouse VEGF164 (R&D 493-MV/CF) (ligand, UniProt Q00731-2 27-190, looked up, Bought reagent; also called mVEGF164; murine VEGF164) APTTEGEQKSHEVIKFMDVYQRSYCRPIETLVDIFQEYPDEIEYIFKPSCVPLMRCAGCCNDEALECVPTSESNITMQIMRIKPHQSQHIGEMSFLQHSRCECRPKKDRTKPENHCEPCSERRKHLFVQDPQTCKCSCKNTDSRCKARQLELNERTCRCDKPRR", "values": [{"measurement": "binding result", "setting": "[3]", "result": "binds"}]}]}
